Reference: ChEMBL document CHEMBL3991601, “The target landscape of clinical kinase drugs” (Science, 2017)
The source made the active and inactive calls.

Experiments:
[1] = target: Ribosomal protein S6 kinase beta-1 (Homo sapiens, UniProt P23443)
Myosin-14 = Myosin-14 (Homo sapiens, UniProt Q7Z406)
Rab-like protein 3 = target: T1, Rab-like protein 3 (Homo sapiens, UniProt Q5HYI8)
T1 sequence (Q5HYI8 whole entry): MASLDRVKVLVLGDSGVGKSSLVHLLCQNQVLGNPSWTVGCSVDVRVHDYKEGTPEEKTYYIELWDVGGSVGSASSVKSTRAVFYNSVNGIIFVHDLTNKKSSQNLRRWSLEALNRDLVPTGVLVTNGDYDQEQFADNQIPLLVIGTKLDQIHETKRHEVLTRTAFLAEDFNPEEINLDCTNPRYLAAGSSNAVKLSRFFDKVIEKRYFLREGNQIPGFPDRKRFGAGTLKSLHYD

[2] = target: Bone morphogenetic protein receptor type-1B (Homo sapiens, UniProt O00238)
Ephrin type-A receptor 5 = Ephrin type-A receptor 5 (Homo sapiens, UniProt P54756)
[3] = target: T2, General transcription and DNA repair factor IIH helicase subunit XPD (Homo sapiens, UniProt P18074); details: read-out: Kd apparent; k-562, colo 205, sk-n-be(2) and mv-4-11
T2 sequence (P18074 whole entry): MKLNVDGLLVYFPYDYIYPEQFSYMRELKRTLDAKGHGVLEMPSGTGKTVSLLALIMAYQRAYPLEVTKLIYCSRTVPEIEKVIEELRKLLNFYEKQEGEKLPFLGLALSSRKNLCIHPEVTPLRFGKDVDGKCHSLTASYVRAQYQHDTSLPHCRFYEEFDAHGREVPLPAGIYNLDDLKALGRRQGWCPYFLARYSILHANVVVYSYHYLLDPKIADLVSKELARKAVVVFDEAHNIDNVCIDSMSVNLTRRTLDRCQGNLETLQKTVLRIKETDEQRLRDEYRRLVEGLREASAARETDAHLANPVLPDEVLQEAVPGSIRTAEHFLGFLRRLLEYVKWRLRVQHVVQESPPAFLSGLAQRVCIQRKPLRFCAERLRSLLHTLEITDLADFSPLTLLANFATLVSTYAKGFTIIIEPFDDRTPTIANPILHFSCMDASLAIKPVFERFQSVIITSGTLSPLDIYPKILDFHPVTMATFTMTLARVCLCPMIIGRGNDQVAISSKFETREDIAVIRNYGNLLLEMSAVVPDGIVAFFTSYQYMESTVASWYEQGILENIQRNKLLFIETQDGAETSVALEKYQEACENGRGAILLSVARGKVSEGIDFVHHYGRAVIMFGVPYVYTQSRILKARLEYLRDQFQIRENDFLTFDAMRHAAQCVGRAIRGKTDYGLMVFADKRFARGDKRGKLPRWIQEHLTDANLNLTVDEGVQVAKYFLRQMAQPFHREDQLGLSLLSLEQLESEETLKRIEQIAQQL

Septin-9 = target: T3, Septin-9 (Homo sapiens, UniProt Q9UHD8)
T3 sequence (Q9UHD8 whole entry): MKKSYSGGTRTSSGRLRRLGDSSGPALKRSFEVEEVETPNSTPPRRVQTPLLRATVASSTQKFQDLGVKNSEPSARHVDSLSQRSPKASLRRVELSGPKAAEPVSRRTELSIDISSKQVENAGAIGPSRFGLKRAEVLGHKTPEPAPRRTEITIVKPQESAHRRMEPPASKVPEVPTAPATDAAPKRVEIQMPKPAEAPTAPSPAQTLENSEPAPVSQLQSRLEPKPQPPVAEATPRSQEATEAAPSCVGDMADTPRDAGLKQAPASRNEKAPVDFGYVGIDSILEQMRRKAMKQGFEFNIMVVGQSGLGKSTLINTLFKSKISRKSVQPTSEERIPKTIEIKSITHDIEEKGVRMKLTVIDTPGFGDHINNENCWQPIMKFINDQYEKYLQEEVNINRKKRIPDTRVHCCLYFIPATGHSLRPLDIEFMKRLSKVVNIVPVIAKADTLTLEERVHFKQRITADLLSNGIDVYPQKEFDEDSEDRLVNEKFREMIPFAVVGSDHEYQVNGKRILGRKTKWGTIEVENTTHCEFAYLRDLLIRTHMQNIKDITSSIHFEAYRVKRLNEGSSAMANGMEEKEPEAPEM

[4] = target: T4, ATP-dependent RNA helicase DDX1 (Homo sapiens, UniProt Q92499)
T4 sequence (Q92499 whole entry): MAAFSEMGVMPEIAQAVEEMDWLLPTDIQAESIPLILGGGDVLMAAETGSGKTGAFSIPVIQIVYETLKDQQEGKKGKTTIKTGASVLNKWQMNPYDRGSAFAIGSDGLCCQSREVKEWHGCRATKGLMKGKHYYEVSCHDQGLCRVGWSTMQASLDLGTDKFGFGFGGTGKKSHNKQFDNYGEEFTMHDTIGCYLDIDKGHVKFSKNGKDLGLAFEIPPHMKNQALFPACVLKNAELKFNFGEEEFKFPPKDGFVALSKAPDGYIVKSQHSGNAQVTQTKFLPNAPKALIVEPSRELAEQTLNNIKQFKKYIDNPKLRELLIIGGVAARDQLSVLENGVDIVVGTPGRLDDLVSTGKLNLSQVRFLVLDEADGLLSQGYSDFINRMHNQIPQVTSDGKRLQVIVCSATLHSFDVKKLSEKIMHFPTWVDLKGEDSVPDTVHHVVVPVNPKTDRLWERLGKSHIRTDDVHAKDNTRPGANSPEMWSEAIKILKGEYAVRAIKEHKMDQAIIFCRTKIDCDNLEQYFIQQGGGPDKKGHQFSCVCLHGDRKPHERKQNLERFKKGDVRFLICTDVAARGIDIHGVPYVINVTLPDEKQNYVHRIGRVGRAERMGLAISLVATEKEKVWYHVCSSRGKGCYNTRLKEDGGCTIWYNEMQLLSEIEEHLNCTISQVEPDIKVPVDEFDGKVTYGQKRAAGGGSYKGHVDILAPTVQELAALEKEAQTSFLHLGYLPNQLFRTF
Note: in the data inactive means no Kd found up to 30 µM.

Sequence of Myosin-14 (Q7Z406 whole entry): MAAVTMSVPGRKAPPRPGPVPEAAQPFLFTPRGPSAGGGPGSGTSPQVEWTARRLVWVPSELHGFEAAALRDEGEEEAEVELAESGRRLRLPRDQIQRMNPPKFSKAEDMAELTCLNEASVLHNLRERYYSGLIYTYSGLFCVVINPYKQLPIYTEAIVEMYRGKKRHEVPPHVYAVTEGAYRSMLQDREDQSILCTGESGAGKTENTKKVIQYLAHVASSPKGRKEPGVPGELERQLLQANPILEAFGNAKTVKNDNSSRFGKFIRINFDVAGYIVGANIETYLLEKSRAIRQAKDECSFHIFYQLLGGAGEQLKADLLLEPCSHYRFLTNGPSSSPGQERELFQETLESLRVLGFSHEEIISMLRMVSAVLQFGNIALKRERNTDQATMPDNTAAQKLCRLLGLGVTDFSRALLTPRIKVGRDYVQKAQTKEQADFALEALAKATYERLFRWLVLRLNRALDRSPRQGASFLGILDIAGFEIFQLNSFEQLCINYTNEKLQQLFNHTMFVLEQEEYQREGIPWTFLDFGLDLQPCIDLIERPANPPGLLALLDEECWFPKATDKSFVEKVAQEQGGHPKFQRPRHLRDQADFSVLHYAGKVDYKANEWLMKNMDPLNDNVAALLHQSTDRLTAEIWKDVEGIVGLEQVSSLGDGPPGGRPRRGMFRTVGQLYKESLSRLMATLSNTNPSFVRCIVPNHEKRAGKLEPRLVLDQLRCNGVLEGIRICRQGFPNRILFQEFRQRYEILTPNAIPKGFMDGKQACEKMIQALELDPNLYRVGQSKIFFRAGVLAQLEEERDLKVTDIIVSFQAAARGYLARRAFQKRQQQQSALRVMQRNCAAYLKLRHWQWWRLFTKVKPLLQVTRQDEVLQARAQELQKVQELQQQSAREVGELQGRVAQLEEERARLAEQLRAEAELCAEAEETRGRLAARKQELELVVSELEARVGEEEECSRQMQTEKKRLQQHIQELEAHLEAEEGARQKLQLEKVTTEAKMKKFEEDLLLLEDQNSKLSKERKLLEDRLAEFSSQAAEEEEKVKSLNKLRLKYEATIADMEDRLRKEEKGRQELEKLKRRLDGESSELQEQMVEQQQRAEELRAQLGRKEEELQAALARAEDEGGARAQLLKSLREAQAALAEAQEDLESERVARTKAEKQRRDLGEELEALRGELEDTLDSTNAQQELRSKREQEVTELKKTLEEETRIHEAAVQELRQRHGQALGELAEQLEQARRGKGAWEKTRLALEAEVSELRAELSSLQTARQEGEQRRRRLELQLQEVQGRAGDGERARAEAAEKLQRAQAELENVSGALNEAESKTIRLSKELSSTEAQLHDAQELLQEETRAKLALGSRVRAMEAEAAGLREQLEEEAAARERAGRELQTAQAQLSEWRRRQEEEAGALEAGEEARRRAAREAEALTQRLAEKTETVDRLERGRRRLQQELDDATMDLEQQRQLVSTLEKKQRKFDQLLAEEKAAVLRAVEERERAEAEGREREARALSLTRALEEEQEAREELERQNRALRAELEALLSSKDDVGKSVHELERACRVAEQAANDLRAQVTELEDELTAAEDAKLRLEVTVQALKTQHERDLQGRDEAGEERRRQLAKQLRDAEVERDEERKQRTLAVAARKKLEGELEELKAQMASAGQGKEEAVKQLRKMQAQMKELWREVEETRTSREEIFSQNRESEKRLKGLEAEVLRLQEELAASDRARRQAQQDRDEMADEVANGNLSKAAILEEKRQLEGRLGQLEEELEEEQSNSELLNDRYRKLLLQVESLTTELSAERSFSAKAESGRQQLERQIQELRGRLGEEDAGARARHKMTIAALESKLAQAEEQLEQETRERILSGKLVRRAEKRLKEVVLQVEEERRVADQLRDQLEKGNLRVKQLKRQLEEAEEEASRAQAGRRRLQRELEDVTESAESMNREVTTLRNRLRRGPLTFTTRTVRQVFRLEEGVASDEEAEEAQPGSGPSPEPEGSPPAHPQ
Sequence of Ephrin type-A receptor 5 (P54756 whole entry): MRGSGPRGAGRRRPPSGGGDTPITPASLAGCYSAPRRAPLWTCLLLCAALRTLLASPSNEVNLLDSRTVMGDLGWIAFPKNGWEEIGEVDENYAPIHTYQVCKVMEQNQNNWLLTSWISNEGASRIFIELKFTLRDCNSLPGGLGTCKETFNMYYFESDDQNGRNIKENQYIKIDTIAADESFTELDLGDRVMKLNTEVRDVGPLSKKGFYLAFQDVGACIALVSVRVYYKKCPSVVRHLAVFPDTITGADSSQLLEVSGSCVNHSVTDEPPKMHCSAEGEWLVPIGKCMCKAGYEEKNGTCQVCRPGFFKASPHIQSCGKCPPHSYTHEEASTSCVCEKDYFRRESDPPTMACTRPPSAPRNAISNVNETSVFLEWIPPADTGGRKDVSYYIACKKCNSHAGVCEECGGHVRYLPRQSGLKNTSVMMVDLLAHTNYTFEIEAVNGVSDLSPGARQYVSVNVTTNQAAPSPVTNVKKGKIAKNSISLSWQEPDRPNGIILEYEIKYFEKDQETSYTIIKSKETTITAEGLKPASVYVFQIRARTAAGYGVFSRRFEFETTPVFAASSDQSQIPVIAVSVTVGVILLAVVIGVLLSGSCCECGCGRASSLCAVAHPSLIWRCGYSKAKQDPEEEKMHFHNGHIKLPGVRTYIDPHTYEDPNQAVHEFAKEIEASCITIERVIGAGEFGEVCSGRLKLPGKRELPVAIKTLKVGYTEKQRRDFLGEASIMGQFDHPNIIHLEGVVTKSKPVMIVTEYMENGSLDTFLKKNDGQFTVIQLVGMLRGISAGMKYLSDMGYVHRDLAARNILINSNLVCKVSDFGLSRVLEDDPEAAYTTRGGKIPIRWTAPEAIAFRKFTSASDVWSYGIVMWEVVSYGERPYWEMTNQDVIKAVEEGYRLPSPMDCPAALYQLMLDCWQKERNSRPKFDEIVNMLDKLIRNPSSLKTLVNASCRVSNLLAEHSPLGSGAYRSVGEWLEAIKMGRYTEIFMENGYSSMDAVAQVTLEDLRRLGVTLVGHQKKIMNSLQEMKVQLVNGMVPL
Sequence of Bone morphogenetic protein receptor type-1B (O00238 whole entry): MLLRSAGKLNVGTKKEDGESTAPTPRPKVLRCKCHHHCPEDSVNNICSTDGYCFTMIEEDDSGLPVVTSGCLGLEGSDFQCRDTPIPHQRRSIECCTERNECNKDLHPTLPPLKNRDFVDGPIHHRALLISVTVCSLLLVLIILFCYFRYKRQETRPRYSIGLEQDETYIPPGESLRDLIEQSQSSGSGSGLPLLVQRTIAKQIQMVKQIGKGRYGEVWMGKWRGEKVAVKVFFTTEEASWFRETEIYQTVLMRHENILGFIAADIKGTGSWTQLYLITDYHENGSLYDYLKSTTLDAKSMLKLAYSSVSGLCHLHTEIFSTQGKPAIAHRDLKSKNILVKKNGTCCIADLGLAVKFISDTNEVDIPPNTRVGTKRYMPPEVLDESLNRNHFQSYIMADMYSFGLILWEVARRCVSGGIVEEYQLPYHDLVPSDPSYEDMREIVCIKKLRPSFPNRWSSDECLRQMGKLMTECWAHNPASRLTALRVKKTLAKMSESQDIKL
Sequence of Ribosomal protein S6 kinase beta-1 (P23443 whole entry): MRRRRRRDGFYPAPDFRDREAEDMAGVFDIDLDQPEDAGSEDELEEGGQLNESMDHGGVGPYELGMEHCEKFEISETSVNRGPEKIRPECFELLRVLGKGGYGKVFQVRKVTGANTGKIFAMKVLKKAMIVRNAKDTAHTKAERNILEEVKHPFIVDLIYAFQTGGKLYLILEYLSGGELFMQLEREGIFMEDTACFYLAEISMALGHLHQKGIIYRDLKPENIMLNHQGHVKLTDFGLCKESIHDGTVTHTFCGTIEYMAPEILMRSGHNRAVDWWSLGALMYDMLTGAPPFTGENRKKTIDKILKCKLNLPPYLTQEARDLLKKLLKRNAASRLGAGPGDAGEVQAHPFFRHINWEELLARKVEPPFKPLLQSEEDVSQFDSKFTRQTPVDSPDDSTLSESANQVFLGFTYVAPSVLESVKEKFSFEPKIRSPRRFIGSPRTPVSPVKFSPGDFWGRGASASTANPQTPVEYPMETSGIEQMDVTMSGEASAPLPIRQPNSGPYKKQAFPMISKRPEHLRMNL

Kd [1]	Kd (Myosin-14)	Kd (Rab-like protein 3)	Kd [2]	Kd (Ephrin type-A receptor 5)	Kd [3]	Kd (Septin-9)	Kd [4]	Compound
> 30 µM (inactive)	> 30 µM (inactive)	> 30 µM (inactive)	> 30 µM (inactive)	> 30 µM (inactive)	> 30 µM (inactive)	> 30 µM (inactive)	> 30 µM (inactive)	COC(=O)N[C@@H](C)CNc1nccc(-c2cn(C(C)C)nc2-c2cc(Cl)cc(NS(C)(=O)=O)c2F)n1 [ENCORAFENIB]
> 30 µM (inactive)	> 30 µM (inactive)	> 30 µM (inactive)	> 30 µM (inactive)	> 30 µM (inactive)	> 30 µM (inactive)	> 30 µM (inactive)	> 30 µM (inactive)	COCCNCc1ccc(-c2cc3nccc(Oc4ccc(NC(=S)NC(=O)Cc5ccc(F)cc5)cc4F)c3s2)nc1 [GLESATINIB]
> 30 µM (inactive)	> 30 µM (inactive)	> 30 µM (inactive)	> 30 µM (inactive)	> 30 µM (inactive)	> 30 µM (inactive)	> 30 µM (inactive)	> 30 µM (inactive)	O=C1NC(=O)/C(=C/c2ccc3nccc(-c4ccncc4)c3c2)S1 [GSK-1059615]
> 30 µM (inactive)	> 30 µM (inactive)	> 30 µM (inactive)	> 30 µM (inactive)	> 30 µM (inactive)	> 30 µM (inactive)	> 30 µM (inactive)	> 30 µM (inactive)	Cn1cc(-c2ccc3nnc(C(F)(F)c4ccc5ncccc5c4)n3n2)cn1 [JNJ-38877605]
0.015 µM (active)	> 30 µM (inactive)	> 30 µM (inactive)	> 30 µM (inactive)	> 30 µM (inactive)	> 30 µM (inactive)	> 30 µM (inactive)	> 30 µM (inactive)	Cn1cc(-c2ccc(F)c(C(F)(F)F)c2)nc1C1CCN(c2ncnc3[nH]ncc23)CC1 [LY-2584702]
> 30 µM (inactive)	> 30 µM (inactive)	> 30 µM (inactive)	> 30 µM (inactive)	> 30 µM (inactive)	> 30 µM (inactive)	> 30 µM (inactive)	> 30 µM (inactive)	O=C(O)[C@]1(Cc2cccc(Nc3nccs3)n2)CC[C@@H](Oc2cccc(Cl)c2F)CC1 [MK-5108]
> 30 µM (inactive)	> 30 µM (inactive)	> 30 µM (inactive)	> 30 µM (inactive)	> 30 µM (inactive)	> 30 µM (inactive)	> 30 µM (inactive)	> 30 µM (inactive)	C1=C/COCc2cc(ccc2OCCN2CCCC2)Nc2nccc(n2)-c2cccc(c2)COC/1 [PACRITINIB]
> 30 µM (inactive)	> 30 µM (inactive)	> 30 µM (inactive)	> 30 µM (inactive)	> 30 µM (inactive)	> 30 µM (inactive)	> 30 µM (inactive)	> 30 µM (inactive)	OCCn1cc(-c2cnc3nnn(Cc4ccc5ncccc5c4)c3n2)cn1 [PF-04217903]
> 30 µM (inactive)	> 30 µM (inactive)	> 30 µM (inactive)	> 30 µM (inactive)	> 30 µM (inactive)	> 30 µM (inactive)	> 30 µM (inactive)	> 30 µM (inactive)	CNC(=O)c1ccc(C)c(-n2c(C)cc(OCc3ccc(F)cc3F)c(Br)c2=O)c1 [PH-797804]
> 30 µM (inactive)	> 30 µM (inactive)	> 30 µM (inactive)	> 30 µM (inactive)	0.835 µM (active)	> 30 µM (inactive)	> 30 µM (inactive)	> 30 µM (inactive)	CNC(=O)CN1CCC(Oc2cc3c(Nc4cccc(Cl)c4F)ncnc3cc2OC)CC1 [SAPITINIB]
> 30 µM (inactive)	> 30 µM (inactive)	> 30 µM (inactive)	> 30 µM (inactive)	> 30 µM (inactive)	> 30 µM (inactive)	> 30 µM (inactive)	> 30 µM (inactive)	CN1CCC(CNc2ccc3ncc(-c4cccc(OC(F)(F)F)c4)n3n2)CC1 [SGI-1776]
> 30 µM (inactive)	> 30 µM (inactive)	> 30 µM (inactive)	> 30 µM (inactive)	> 30 µM (inactive)	> 30 µM (inactive)	> 30 µM (inactive)	> 30 µM (inactive)	C[C@@H]1CN(Cc2ccc(F)cc2)[C@@H](C)CN1C(=O)c1cc2c(C(=O)C(=O)N(C)C)cn(C)c2cc1Cl [TALMAPIMOD]
> 30 µM (inactive)	> 30 µM (inactive)	> 30 µM (inactive)	> 30 µM (inactive)	> 30 µM (inactive)	> 30 µM (inactive)	> 30 µM (inactive)	> 30 µM (inactive)	O=c1sn(-c2cccc3ccccc23)c(=O)n1Cc1ccccc1 [TIDEGLUSIB]
> 30 µM (inactive)	> 30 µM (inactive)	> 30 µM (inactive)	> 30 µM (inactive)	0.601 µM (active)	> 30 µM (inactive)	> 30 µM (inactive)	> 30 µM (inactive)	COc1cc2nccc(Oc3ccc(NC(=O)Nc4cc(C)on4)c(Cl)c3)c2cc1OC [TIVOZANIB]
> 30 µM (inactive)	> 30 µM (inactive)	> 30 µM (inactive)	> 30 µM (inactive)	> 30 µM (inactive)	> 30 µM (inactive)	> 30 µM (inactive)	> 30 µM (inactive)	CC(=O)Nc1cccc(-n2c(=O)n(C3CC3)c(=O)c3c(Nc4ccc(I)cc4F)n(C)c(=O)c(C)c32)c1 [TRAMETINIB]

Compound	Kd [1]	Kd (Myosin-14)	Kd (Rab-like protein 3)	Kd [2]	Kd (Ephrin type-A receptor 5)	Kd [3]	Kd (Septin-9)	Kd [4]
COC(=O)[C@@]1(O)C[C@H]2O[C@]1(C)n1c3ccccc3c3c4c(c5c6ccccc6n2c5c31)C(=O)NC4 [K-252A]	> 30 µM (inactive)	> 30 µM (inactive)	> 30 µM (inactive)	> 30 µM (inactive)	> 30 µM (inactive)	> 30 µM (inactive)	> 30 µM (inactive)	> 30 µM (inactive)
Cc1ccc(-n2nc(C(C)(C)C)cc2NC(=O)NCc2cc(F)ccc2Oc2ccc3c(cnn3CCO)c2)cc1 [PEXMETINIB]	> 30 µM (inactive)	> 30 µM (inactive)	> 30 µM (inactive)	> 30 µM (inactive)	> 30 µM (inactive)	> 30 µM (inactive)	> 30 µM (inactive)	> 30 µM (inactive)
